Source: ChEMBL document CHEMBL1121846, “Synthesis and pharmacological evaluation of sulfonium analogues of dopamine: nonclassical dopamine agonists” (J Med Chem, 1981)

Key:
Rattus norvegicus [1] = species on record: Rattus norvegicus; test: Maximal degree of inhibition at 3-30 uM concentration was determined from displacement of [3H]-dopamine binding to rat brain striatal membrane; format: functional
Rattus norvegicus [2] = species on record: Rattus norvegicus; test: Compound concentration required to reduce specific binding of tritiated dopamine to rat brain striatal membrane by 50 % was reported
Rattus norvegicus [3] = species on record: Rattus norvegicus; settings: Striatum, 1 uM
Rattus norvegicus [4] = species on record: Rattus norvegicus; test: Contralateral rotation produced by intrastriatal injection in rats with unilateral 6-hydroxydopamine-induced lesions of the substantia nigra at 10 nmol; turns/5 min; format: functional
Rattus norvegicus [5] = species on record: Rattus norvegicus; test: Maximal degree of inhibition was determined from displacement of [3H]dopamine binding to rat brain striatal membrane; format: functional
Rattus norvegicus [6] = species on record: Rattus norvegicus; test: Compound concentration required to reduce specific binding of tritiated dopamine to rat brain striatal membrane
Rattus norvegicus [7] = species on record: Rattus norvegicus; test: Contralateral rotation produced by intrastriatal injection in rats with unilateral 6-hydroxydopamine-induced lesions of the substantia nigra at 90 nmol; turns/5 min; format: functional
Rattus norvegicus [8] = species on record: Rattus norvegicus; test: Contralateral rotation produced by intrastriatal injection in rats with unilateral 6-hydroxydopamine-induced lesions of the substantia nigra at 30 nmol; turns/5 min; format: functional
Rattus norvegicus [9] = species on record: Rattus norvegicus; test: Contralateral rotation produced by intrastriatal injection in rats with unilateral 6-hydroxydopamine-induced lesions of the substantia nigra at 2 microL; turns/5 min; format: functional
Rattus norvegicus [10] = species on record: Rattus norvegicus; test: Contralateral rotation produced by intrastriatal injection in rats with unilateral 6-hydroxydopamine-induced lesions of the substantia nigra at 10 nmol; format: functional

SMILES	Rate of rotation (Rattus norvegicus [4])	inhibition (Rattus norvegicus [5])	IC50 (Rattus norvegicus [6])	Rate of rotation (Rattus norvegicus [7])	Rate of rotation (Rattus norvegicus [8])	other results
C[S+](C)C						inhibition (Rattus norvegicus [1]): 9%
NCCc1ccc(O)c(O)c1 [DOPAMINE]	39.75					IC50 (Rattus norvegicus [2]): 29 nM; Total binding (Rattus norvegicus [3]): 72%
C[S+](C)CCc1ccc(O)c(O)c1.[I-]	11.25	19%	440 nM	31.5	20.75	
O=C1O[C@H]([C@@H](O)CO)C(O)=C1O [ASCORBIC ACID]						Rate of rotation (Rattus norvegicus [9]): 4.5
C[S+](C)CC(=O)c1ccc(O)c(O)c1.[I-]		29%	370 nM	38.83	25.33	Rate of rotation (Rattus norvegicus [10]): 8.4 turns 5min-1
